Measured values: US4167570A, “2-Methyl-6-alkyl-11-aminoalkyl-6,11-dihydro-5H-pyrido(2,3-B)(1,5)benzodia zepin-5-ones and salts thereof” (Boehringer Ingelheim GmbH, priority 1976, dated 1979)
Counter-ions that a name gives are not always drawn.

Experiments:
[1] = tested on: bronchial secretion in guinea pigs; assay: expectorant (bronchosecretolytic) activity, increase in bronchial secretion in anesthetized guinea pigs, peroral administration (Perry & Boyd, modified by Engelhorn & Puschmann); assay type: in vivo; conditions: two-hour period, vs untreated controls, male guinea pigs
Protocol: (§1) The bronchosecretolytic activity and the intravenous acute toxicity of the compounds of this invention and of certain related 2-unsubstituted analogs disclosed in German Offenlegungsschrift No. 2,424,811 were ascertained by the standard test methods described below.
The tests for expectorant activity were carried out according to the method of PERRY, W. and BOYD, E.M.; J. Pharmacol. exp. Therap. 73, 65 (1941), as modified by ENGELHORN, R. and PUSCHMANN, S.; Arzneimittel Forsch. 21, 1045 (1971), on male guinea pigs with a body weight of 450 to 550 gm, which were anesthetized by i.p.-administration of a * 25% urethane solution (1,0 g/kg). The substances were administered perorally at the indicated dosages levels, each in 2 ml of distilled water, by means of an esophageal tube. 5 tests were carried out per dosage. The increase in bronchial secretion was calculated from the amount secreted within a two-hour period after administration of the test compound in comparison with the values obtained from untreated control animals, also within a two-hour period.

[2] = acute toxicity, LD50 in the mouse after intravenous administration; conditions: in vivo, i.v., NMRI-mice both sexes, deaths within 14 days, Litchfield and Wilcoxon
Protocol: as §1
The acute toxicity was tested in NMRI-mice of both sexes having a body weight of 20 gm after intravenous administration. 0.1 ml of an aqueous 0.9% sodium chloride solution/10 gm of animal was used as a vehicle. The LD50 was calculated according to LITCHFIELD and WILCOXON from the percentage of the animals which died within 14 days after administration of various dosages.

| SMILES | Average percentage change in amount of bronchial secretion in guinea pigs ([1]; 0.005 μg/kg per os) | Average percentage change in amount of bronchial secretion in guinea pigs ([1]; 0.05 μg/kg per os) | LD50 at 336 h [2] [mg/kg] | Average percentage change in amount of bronchial secretion in guinea pigs ([1]; 0.5 μg/kg per os) |
| --- | --- | --- | --- | --- |
| CCN(CC)CCCN1c2ccccc2N(C)C(=O)c2ccc(C)nc21.Cl [A, 11-(3-Diethylamino-propyl)-6,11-dihydro-2,6-dimethyl-5H-pyrido[2,3-b][1,5]benzodiazepin-5-one hydrochloride] | +44% | +100% | 15.4 |  |
| CCN(CC)CCCN1c2cc(C)c(C)cc2N(C)C(=O)c2ccc(C)nc21.O=C(O)/C=C/C(=O)O [B, 11-(3-Diethylamino-propyl)-6,11-dihydro-2,6,8,9-tetramethyl-5H-pyrido[2,3-b][1,5]benzodiazepin-5-one hydrogen fumarate] | +44% | +83% | 9.9 |  |
| CCN(CC)CCCN1c2ccccc2N(C)C(=O)c2cccnc21.Cl [X, 11-(3-Diethylamino-propyl)-6,11-dihydro-6-methyl-5H-pyrido[2,3-b][1,5]benzodiazepin-5-one hydrochloride] | +0% | +13% |  | +80% |
| CCN(CCCN1c2ccccc2N(C)C(=O)c2cccnc21)C(C)C [Y, 11-[3-N-ethyl-N-isopropyl-amino)-propyl]-6,11-dihydro-6-methyl-5H-pyrido[2,3-b][1,5]benzodiazepin-5-one hydrochloride] |  | +10% | 30 |  |
| CC(C)N(CCCN1c2ccccc2N(C)C(=O)c2cccnc21)C(C)C.Cl [Z, 6,11-Dihydro-11-(3-diisopropylamino-propyl)-6-methyl-5H-pyrido[2,3-b][1,5]benzodiazepin-5-one hydrochloride] |  | +27% |  |  |
